What is called MIC99 is the lowest concentration that inhibits either 99% of growth or 99% of the strains tested, depending on the study. Read a low MIC99 as higher susceptibility. As a reminder, the IC50 is the concentration at which inhibition is half-maximal.

20 molecules from ChEMBL document CHEMBL3621073, “Bile acid amphiphiles with tunable head groups as highly selective antitubercular agents” (Medchemcomm, 2014) can be followed below.

Data set [1] relates to Mycobacterium tuberculosis. Kind of data set: Antimycobacterial activity against Mycobacterium tuberculosis H37Rv after 14 days by inverted microscopic analysis. The format is functional. Conditions: 336 h.
In data set [2] the test system is Mycolicibacterium smegmatis. Description: Antimycobacterial activity against Mycobacterium smegmatis str. MC2 155 after 2 days by inverted microscopic analysis. Conditions: str. MC2 155, 48 h. The format is functional.
The next data set relates to THP-1. Kind of data set: Cytotoxicity against human THP1 cells after 48 hrs by MTT assay. The format is cell-based. The note with it: THP-1, 48 h.
The subject of data set [3] is A549. Kind of data set: Cytotoxicity against human A549 cells after 48 hrs by MTT assay. Conditions: A549, 48 h. The format is cell-based. On the technique in general: Tetrazolium assays rely on reduction of a dye to a coloured formazan, in cell work by metabolically active cells.
The nature of data set [4]: Therapeutic index, ratio of MHC50 for sheep RBC to MIC99 for Mycobacterium tuberculosis H37Rv. Conditions: sheep red blood cells, read-out: TI.
The next data set has as its system Staphylococcus aureus. Description: Antibacterial activity against Staphylococcus aureus MTCC 737 after 12 hrs by microplate reader assay. The format is functional. The note with it: MTCC 737, 12 h.
The next data set relates to Escherichia coli. Description: Antibacterial activity against Escherichia coli MTCC 443 after 12 hrs by microplate reader assay. It is filed as functional. Conditions: MTCC 443, 12 h.
The nature of data set [5]: Therapeutic index, ratio of MHC50 for chicken RBC to MIC99 for Mycobacterium tuberculosis H37Rv. The note with it: chicken red blood cells, read-out: TI.
The test system of data set [6] is A549. Kind of data set: Cytotoxicity against human A549 cells assessed as effect on cell cycle phase at 100 uM by propidium iodide staining-based flow cytometry. Conditions: a549, 100 µM. (A flow cytometer gives signals particle by particle.)

Converted amounts (≈) assume the structure as drawn.

Consider `NNC(=O)c1ccncc1` [ISONIAZID], for which the MIC99 in data set [1] was 0.78 µM (≈ 0.107 µg/mL); in [2], above 50 µM.
`COC(=O)CC[C@@H](C)[C@H]1CC[C@H]2[C@@H]3CC[C@@H]4C[C@H](OC(=O)C[N+]5(C)CCCCC5)CC[C@]4(C)[C@H]3CC[C@]12C`: the 50% inhibitory concentration (IC50) in the data set on THP-1 is 77 µM; in the data set on A549 [3] it was 42 µM. For the same molecule, the selectivity ratio in [4] and in data set [5] was above 20 each time. For the same molecule, the MIC99 is above 512 µM in the data set with Staphylococcus aureus, 50 µM in data set [1], above 512 µM with Escherichia coli and 6.25 µM in data set [2].
With `COC(=O)CC[C@@H](C)[C@H]1CC[C@H]2[C@@H]3[C@H](OC(=O)C[n+]4ccccc4)C[C@@H]4C[C@H](OC(=O)C[n+]5ccccc5)CC[C@]4(C)[C@H]3CC[C@]12C`, the 50% inhibitory concentration (IC50) in the data set with THP-1 is above 200 µM; with A549 [3] it was 168 µM. In addition, the selectivity ratio in data set [4] and in [5] was above 40 each time. The MIC99 against Staphylococcus aureus worked out at 256 µM; in data set [1], 25 µM; against Escherichia coli it was 128 µM; in [2] it was 3.12 µM.
As to `COC(=O)CC[C@@H](C)[C@H]1CC[C@H]2[C@@H]3CC[C@@H]4C[C@H](OC(=O)C[N+](C)(C)C)CC[C@]4(C)[C@H]3CC[C@]12C`, the half-maximal inhibitory concentration (IC50) in the data set with THP-1 was determined as 62 µM; with A549 [3], 69 µM. Besides, the selectivity ratio in data set [4] and in data set [5] was above 20 throughout. Further, the MIC99 against Staphylococcus aureus is above 512 µM; in [1], 50 µM; against Escherichia coli it was above 512 µM; in [2], 6.25 µM.
For the molecule `COC(=O)CC[C@@H](C)[C@H]1CC[C@H]2[C@@H]3CC[C@@H]4C[C@H](OC(=O)C[n+]5ccc(N(C)C)cc5)CC[C@]4(C)[C@H]3CC[C@]12C`, the IC50 worked out at 86 µM in the data set on THP-1 and 112 µM with A549 [3]. Further, the selectivity ratio in data set [4] and in data set [5] was above 20 each time. In addition, the MIC99 against Staphylococcus aureus was above 512 µM; in data set [1], 50 µM; in the data set with Escherichia coli, above 512 µM; in data set [2] it was 12.5 µM.
Turning to `C[C@H](CCC(=O)O)[C@H]1CC[C@H]2[C@@H]3[C@H](O)C[C@@H]4C[C@H](O)CC[C@]4(C)[C@H]3C[C@H](O)[C@]12C` [CHOLIC ACID], in the data set on A549 [6], the Activity result is reported as “Non-toxic”.
On to `C[C@H]1COc2c(N3CCN(C)CC3)c(F)cc3c(=O)c(C(=O)O)cn1c23` [LEVOFLOXACIN], for which the MIC99 in data set [1] was determined as 0.78 µM (≈ 0.282 µg/mL); in data set [2] it was 0.58 µM (≈ 0.21 µg/mL).
For `COC(=O)CC[C@@H](C)[C@H]1CC[C@H]2[C@@H]3[C@H](OC(=O)CN)C[C@@H]4C[C@H](OC(=O)CN)CC[C@]4(C)[C@H]3CC[C@]12C`, the values for the concentration for half-maximal inhibition (IC50) in the data set with THP-1 and in the data set on A549 [3] were 13.7 µM and 14.8 µM, respectively. Further, the selectivity ratio in data set [4] and in data set [5] was below 20 in each case. In addition, the MIC99 was 128 µM (≈ 66.7 µg/mL) against Staphylococcus aureus, above 50 µM in data set [1], 64 µM (≈ 33.3 µg/mL) against Escherichia coli and above 50 µM in [2].
For the molecule `COC(=O)CC[C@@H](C)[C@H]1CC[C@H]2[C@@H]3[C@H](OC(=O)C[n+]4ccc(N(C)C)cc4)C[C@@H]4C[C@H](OC(=O)C[n+]5ccc(N(C)C)cc5)CC[C@]4(C)[C@H]3CC[C@]12C`, the concentration for half-maximal inhibition (IC50) in the data set on THP-1 was 137 µM; in the data set on A549 [3], 154 µM. The selectivity ratio in [4] and in data set [5] was above 320 in each case. The MIC99 came to 128 µM with Staphylococcus aureus, 3.12 µM in data set [1], 128 µM against Escherichia coli and 0.78 µM in data set [2].
In the case of `COC(=O)CC[C@@H](C)[C@H]1CC[C@H]2[C@@H]3CC[C@@H]4C[C@H](OC(=O)C[N+]5(C)CCCCC5)CC[C@]4(C)[C@H]3C[C@H](OC(=O)C[N+]3(C)CCCCC3)[C@]12C`, the values for the IC50 with THP-1 and in the data set with A549 [3] were 77 µM and 50 µM, respectively. Moreover, the selectivity ratio in data set [4] and in data set [5] was above 160 each time. Also, the MIC99 in the data set with Staphylococcus aureus was 128 µM; in data set [1], 6.25 µM; in the data set on Escherichia coli, above 512 µM; in [2], 0.78 µM.
On to `COC(=O)CC[C@@H](C)[C@H]1CC[C@H]2[C@@H]3[C@H](OC(=O)C[n+]4ccccc4)C[C@@H]4C[C@H](OC(=O)C[n+]5ccccc5)CC[C@]4(C)[C@H]3C[C@H](OC(=O)C[n+]3ccccc3)[C@]12C.[Cl-].[Cl-].[Cl-]`, for which the IC50 in the data set with THP-1 and with A549 [3] was above 200 µM each time. The selectivity ratio in data set [4] and in data set [5] was above 26 throughout. Moreover, the MIC99 in the data set with Staphylococcus aureus was above 512 µM; in [1], 37.5 µM; in the data set with Escherichia coli, above 512 µM; in data set [2], 3.12 µM. Besides, the Activity result in the data set with A549 [6] is “Non-toxic”.
With `COC(=O)CC[C@@H](C)[C@H]1CC[C@H]2[C@@H]3CC[C@@H]4C[C@H](OC(=O)C[n+]5ccccc5)CC[C@]4(C)[C@H]3CC[C@]12C`, the results for the half-inhibitory concentration (IC50) in the data set with THP-1 and in the data set on A549 [3] were 89 µM and 68 µM, respectively. For the same molecule, the selectivity ratio in data set [4] and in [5] was below 20 throughout. Further, the MIC99 in the data set with Staphylococcus aureus was above 512 µM; in [1], above 50 µM; against Escherichia coli, above 512 µM; in [2], 25 µM.
Regarding `COC(=O)CC[C@@H](C)[C@H]1CC[C@H]2[C@@H]3[C@H](OC(=O)C[N+](C)(C)C)C[C@@H]4C[C@H](OC(=O)C[N+](C)(C)C)CC[C@]4(C)[C@H]3C[C@H](OC(=O)C[N+](C)(C)C)[C@]12C.[Cl-].[Cl-].[Cl-]`, the results for the half-maximal inhibitory concentration (IC50) in the data set with THP-1 and with A549 [3] were 80 µM and above 200 µM, respectively. Also, the selectivity ratio in [4] and in data set [5] was above 20 in each case. Also, the MIC99 was above 512 µM against Staphylococcus aureus, 50 µM in [1], above 512 µM with Escherichia coli and 12.5 µM in data set [2]. In addition, the Activity entry in the data set with A549 [6] was “Non-toxic”.
Turning to `COC(=O)CC[C@@H](C)[C@H]1CC[C@H]2[C@@H]3CC[C@@H]4C[C@H](OC(=O)C[n+]5ccc(N(C)C)cc5)CC[C@]4(C)[C@H]3C[C@H](OC(=O)C[n+]3ccc(N(C)C)cc3)[C@]12C`, the IC50 with THP-1 came to 63 µM; in the data set on A549 [3] it was 50 µM. In addition, the selectivity ratio in [4] and in [5] was above 213 throughout. The MIC99 in the data set with Staphylococcus aureus came out at 64 µM; in data set [1], 4.68 µM; against Escherichia coli it was 64 µM; in data set [2] it was 0.78 µM.
Turning to `COC(=O)CC[C@@H](C)[C@H]1CC[C@H]2[C@@H]3CC[C@@H]4C[C@H](OC(=O)CN)CC[C@]4(C)[C@H]3C[C@H](OC(=O)CN)[C@]12C`, the IC50 is 14 µM in the data set with THP-1 and 14.7 µM in the data set on A549 [3]. In addition, the selectivity ratio in data set [4] and in data set [5] was below 20 in each case. The MIC99 in the data set with Staphylococcus aureus is 64 µM (≈ 33.3 µg/mL); in [1], above 50 µM; with Escherichia coli it was 16 µM (≈ 8.33 µg/mL); in [2], above 50 µM.
Take `COC(=O)CC[C@@H](C)[C@H]1CC[C@H]2[C@@H]3CC[C@@H]4C[C@H](OC(=O)C[N+](C)(C)C)CC[C@]4(C)[C@H]3C[C@H](OC(=O)C[N+](C)(C)C)[C@]12C`: the figures for the IC50 in the data set on THP-1 and with A549 [3] were 105 µM and 157 µM, respectively. The selectivity ratio in data set [4] and in data set [5] was below 20 in each case. Moreover, the MIC99 was 256 µM against Staphylococcus aureus, above 50 µM in [1], 256 µM in the data set with Escherichia coli and 12.5 µM in data set [2].
`COC(=O)CC[C@@H](C)[C@H]1CC[C@H]2[C@@H]3CC[C@@H]4C[C@H](OC(=O)C[n+]5ccccc5)CC[C@]4(C)[C@H]3C[C@H](OC(=O)C[n+]3ccccc3)[C@]12C`: the figures for the concentration for half-maximal inhibition (IC50) in the data set on THP-1 and in the data set with A549 [3] were 124 µM and 78 µM, respectively. The selectivity ratio in data set [4] and in data set [5] was above 80 throughout. The MIC99 was above 512 µM in the data set with Staphylococcus aureus, 12.5 µM in data set [1], 128 µM against Escherichia coli and 1.56 µM in [2].
Regarding `COC(=O)CC[C@@H](C)[C@H]1CC[C@H]2[C@@H]3[C@H](OC(=O)C[N+](C)(C)C)C[C@@H]4C[C@H](OC(=O)C[N+](C)(C)C)CC[C@]4(C)[C@H]3CC[C@]12C`, the half-maximal inhibitory concentration (IC50) was determined as 142 µM in the data set on THP-1 and 144 µM with A549 [3]. For the same molecule, the selectivity ratio in [4] and in data set [5] was above 80 each time. Moreover, the MIC99 with Staphylococcus aureus came out at 512 µM; in data set [1], 12.5 µM; against Escherichia coli it was 256 µM; in [2] it was 3.12 µM.
Turning to `COC(=O)CC[C@@H](C)[C@H]1CC[C@H]2[C@@H]3[C@H](OC(=O)C[N+]4(C)CCCCC4)C[C@@H]4C[C@H](OC(=O)C[N+]5(C)CCCCC5)CC[C@]4(C)[C@H]3CC[C@]12C`, the IC50 was determined as 164 µM with THP-1 and 79 µM in the data set with A549 [3]. In addition, the selectivity ratio in data set [4] and in [5] was above 80 each time. For the same molecule, the MIC99 against Staphylococcus aureus was determined as 256 µM; in data set [1], 12.5 µM; against Escherichia coli, 128 µM; in data set [2], 1.56 µM.
Consider `COC(=O)CC[C@@H](C)[C@H]1CC[C@H]2[C@@H]3CC[C@@H]4C[C@H](OC(=O)CN)CC[C@]4(C)[C@H]3CC[C@]12C`, for which the values for the IC50 with THP-1 and with A549 [3] were 14 µM and 24.6 µM, respectively. In addition, the selectivity ratio in data set [4] and in data set [5] was below 20 throughout. The MIC99 with Staphylococcus aureus is above 512 µM; in data set [1], above 50 µM; with Escherichia coli it was above 512 µM; in data set [2], above 50 µM.
